The source made the active and inactive calls. The rule behind the calls is not given here.
Assays:
LF = test: confirmation, biochemical, FRET, cleavage-site specific substrates (AID 651691); settings: FRET protease cleavage assay, BoNT/A LC or LF
BoNT/ALC = test: as above; settings: FRET protease cleavage assay, BoNT/A LC or LF

Row | SMILES | IC50 (LF) | IC50 (BoNT/ALC)
1 | Clc1ccc(-c2cn3nc(-c4ccccc4)c(-c4ccccc4)nc3n2)cc1 | inactive | 700 nM
2 | O=C(Nc1ccc2nc(-c3cccs3)c(-c3cccs3)nc2c1)N1CCCCC1 |  | 1200 nM
3 | c1ccc(-c2cn3nc(-c4ccccc4)c(-c4ccccc4)nc3n2)cc1 |  | 500 nM
4 | O=[N+]([O-])c1ccc(C2=NN(c3ccccc3)C(c3ccco3)C2)cc1 (stereo not given) |  | > 20000 nM (inactive)
5 | COc1ccc(-c2cn3nc(-c4ccccc4)c(-c4ccccc4)nc3n2)cc1 | inactive | 500 nM
6 | Cc1ccc(-c2cn3nc(-c4ccccc4)c(-c4ccccc4)nc3n2)cc1 | inactive | 300 nM
7 | COc1ccc(C2CC(c3cccs3)=NN2c2nc(C)c(C(C)=O)s2)cc1OC (stereo not given) |  | 1300 nM
8 | O=C(Nc1ccc2nc(-c3cccs3)c(-c3cccs3)nc2c1)NC1CC1 | inactive | > 20000 nM (inactive)
9 | COc1ccccc1N1N=C(c2ccc([N+](=O)[O-])cc2)CC1c1ccccc1 (stereo not given) |  | 200 nM
10 | O=[N+]([O-])c1ccc(N2N=C(c3ccccc3)CC2c2ccccc2)cc1 (stereo not given) |  | 1000 nM
11 | O=C(Nc1ccc2nc(-c3cccs3)c(-c3cccs3)nc2c1)N1CCOCC1 |  | > 20000 nM (inactive)

Source: PubChem BioAssay AID651691 (NMMLSC, 2012)
